The results in this text go back to patent publication US20240140938A1, “PREPARATION OF TETRAHYDROINDAZOLE DERIVATIVES AS NOVEL DIACYLGLYCERIDE O-ACYLTRANSFERASE 2 INHIBITORS” (MERCK SHARP & DOHME LLC, priority 2020, published 2024).

Sequence of human DGAT2 (hDGAT2) (Q96PD7 whole entry): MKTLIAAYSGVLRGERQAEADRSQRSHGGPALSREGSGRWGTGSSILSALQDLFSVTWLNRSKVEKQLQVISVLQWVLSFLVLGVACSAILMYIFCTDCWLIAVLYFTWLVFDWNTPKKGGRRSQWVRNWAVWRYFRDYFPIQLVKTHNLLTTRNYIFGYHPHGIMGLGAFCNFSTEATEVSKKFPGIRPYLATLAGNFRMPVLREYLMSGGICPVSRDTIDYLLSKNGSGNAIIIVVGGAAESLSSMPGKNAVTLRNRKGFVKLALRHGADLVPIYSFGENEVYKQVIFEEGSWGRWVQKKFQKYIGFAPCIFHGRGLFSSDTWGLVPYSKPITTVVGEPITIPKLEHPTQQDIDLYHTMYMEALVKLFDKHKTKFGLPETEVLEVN

The target in one assay is human DGAT2 (hDGAT2) (Homo sapiens (Human), UniProt Q96PD7). Kind of assay: DGAT2 Enzymatic Activity Assay. Format: biochemical. The settings on record: hDGAT2 Sf-9 membrane prep; 13C18-triolein product by LC/MS/MS; 25 μM diolein, 5 μM 13C oleoyl-CoA. A digest of the protocol:
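Enzyme source was membrane fractions from Sf-9 cells infected with untagged hDGAT2 baculovirus. Reactions ran at room temperature, and product 13C18-triolein was quantified by LC/MS/MS against a 13C21-triolein internal standard. % inhibition was normalised to high and low controls, and IC50 derived from it.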
Usually IC50 stands for the concentration needed to halve the response being measured. A higher IC50 goes with weaker potency. `CC(C#N)n1nc(-c2cc(OC(F)F)ccc2F)c2c1C[C@H](C(=O)NC1(C)CS(=O)(=O)C1)CC2` (stereo partly drawn) [Example 79, (6R)-1-(1-cyanoethyl)-3-(5-(difluoromethoxy)-2-fluorophenyl)-N-(3-methyl-1,1-dioxidothietan-3-yl)-4,5,6,7-tetrahydro-1H-indazole-6-carboxamide]: the IC50 was found to be 59.1 nM.
Still for that read-out and setting: the value for `CC(c1nccs1)n1nc(-c2cc(OC(F)F)ccc2F)c2c1C[C@H](C(=O)NC1(C)CS(=O)(=O)C1)CC2` (stereo partly drawn) [Example 80, (6R)-3-(5-(difluoromethoxy)-2-fluorophenyl)-N-(3-methyl-1,1-dioxidothietan-3-yl)-1-(1-(thiazol-2-yl)ethyl)-4,5,6,7-tetrahydro-1H-indazole-6-carboxamide] was 174 nM; that for `CC(C)Oc1ccc(F)c(-c2nn(C(C)C)c3c2CC[C@@H](C(=O)NC2(C)CS(=O)(=O)C2)C3)c1` [Example 81, (R)-3-(2-fluoro-5-isopropoxyphenyl)-1-isopropyl-N-(3-methyl-1,1-dioxidothietan-3-yl)-4,5,6,7-tetrahydro-1H-indazole-6-carboxamide] was 24.5 nM; that for `CC(C)n1nc(-c2cc(OC(F)F)ccc2F)c2c1C[C@H](C(=O)NC1(C)CS(=O)(=O)C1)CC2` [Example 82, (R)-3-(5-(difluoromethoxy)-2-fluorophenyl)-1-isopropyl-N-(3-methyl-1,1-dioxidothietan-3-yl)-4,5,6,7-tetrahydro-1H-indazole-6-carboxamide] was 30.8 nM.
Consider `CC(C)n1nc(-c2cc(C3CC3)ccc2F)c2c1C[C@H](C(=O)NC1(C)CS(=O)(=O)C1)CC2` [Example 83, (R)-3-(5-cyclopropyl-2-fluorophenyl)-1-isopropyl-N-(3-methyl-1,1-dioxidothietan-3-yl)-4,5,6,7-tetrahydro-1H-indazole-6-carboxamide], for which the IC50 amounted to 46 nM.
As for `CC(C)n1nc(-c2cc(OC(F)F)ccc2Cl)c2c1C[C@H](C(=O)NC1(C)CS(=O)(=O)C1)CC2` [Example 84, (R)-3-(2-chloro-5-(difluoromethoxy)phenyl)-1-isopropyl-N-(3-methyl-1,1-dioxidothietan-3-yl)-4,5,6,7-tetrahydro-1H-indazole-6-carboxamide], the IC50 came to 7.92 nM.
Turning to `CC(C)n1nc(-c2cc(OC3CC3)ccc2F)c2c1C[C@H](C(=O)NC1(C)CS(=O)(=O)C1)CC2` [Example 85, (R)-3-(5-cyclopropoxy-2-fluorophenyl)-1-isopropyl-N-(3-methyl-1,1-dioxidothietan-3-yl)-4,5,6,7-tetrahydro-1H-indazole-6-carboxamide], 15.6 nM corresponded to half-maximal inhibition (IC50).
Take `Cc1ncc(OC(F)F)cc1-c1nn(C(C)C)c2c1CC[C@@H](C(=O)NC1(C)CS(=O)(=O)C1)C2` [Example 86, (R)-3-(5-(difluoromethoxy)-2-methylpyridin-3-yl)-1-isopropyl-N-(3-methyl-1,1-dioxidothietan-3-yl)-4,5,6,7-tetrahydro-1H-indazole-6-carboxamide]: the IC50 is 170 nM.
Same read-out and setting: the value for `CCOc1cc(F)c(F)c(-c2nn(C(C)C)c3c2CC[C@@H](C(=O)NC2(C)CS(=O)(=O)C2)C3)c1` [Example 87, (R)-3-(5-ethoxy-2,3-difluorophenyl)-1-isopropyl-N-(3-methyl-1,1-dioxidothietan-3-yl)-4,5,6,7-tetrahydro-1H-indazole-6-carboxamide] was 3.6 nM.
Molecule `CC(C)n1nc(-c2cc(OC(F)(F)F)cnc2Cl)c2c1C[C@H](C(=O)NC1(C)CS(=O)(=O)C1)CC2` [Example 88, (R)-3-(2-chloro-5-(trifluoromethoxy)pyridin-3-yl)-1-isopropyl-N-(3-methyl-1,1-dioxidothietan-3-yl)-4,5,6,7-tetrahydro-1H-indazole-6-carboxamide] returned an IC50 of 275 nM.
On the same count and under the same terms, the same measure for `Cc1ncc(OC(F)F)cc1-c1nn(C(C)C)c2c1CC[C@@H](C(=O)NC1(C)CC(F)(F)C1)C2` [Example 89, (R)-N-(3,3-difluoro-1-methylcyclobutyl)-3-(5-(difluoromethoxy)-2-methylpyridin-3-yl)-1-isopropyl-4,5,6,7-tetrahydro-1H-indazole-6-carboxamide]: 318 nM; for `CC(C)n1nc(-c2cccc(C3(C(F)(F)F)CC3)c2)c2c1C[C@H](C(=O)NC1(C)CS(=O)(=O)C1)CC2` [Example 90, (R)-1-isopropyl-N-(3-methyl-1,1-dioxidothietan-3-yl)-3-(3-(1-(trifluoromethyl)cyclopropyl)phenyl)-4,5,6,7-tetrahydro-1H-indazole-6-carboxamide]: above 10000 nM.
The same measure, in the same setting: the value for `CC(C)n1nc(-c2cccc(C3(C#N)CC3)c2)c2c1C[C@H](C(=O)NC1(C)CS(=O)(=O)C1)CC2` [Example 91, (R)-3-(3-(1-cyanocyclopropyl)phenyl)-1-isopropyl-N-(3-methyl-1,1-dioxidothietan-3-yl)-4,5,6,7-tetrahydro-1H-indazole-6-carboxamide] was above 10000 nM; that for `CC(C)n1nc(-c2cc(C(C)(F)F)ncc2F)c2c1C[C@H](C(=O)NC1(C)CCS(=O)(=O)CC1)CC2` [Example 92, (R)-3-(2-(1,1-difluoroethyl)-5-fluoropyridin-4-yl)-1-isopropyl-N-(4-methyl-1,1-dioxidotetrahydro-2H-thiopyran-4-yl)-4,5,6,7-tetrahydro-1H-indazole-6-carboxamide] was 1210 nM; that for `Cc1nc2c(-c3nn(C(C)C)c4c3CC[C@@H](C(=O)NC3(C)CS(=O)(=O)C3)C4)cccc2o1` [Example 93, (R)-1-isopropyl-N-(3-methyl-1,1-dioxidothietan-3-yl)-3-(2-methylbenzo[d]oxazol-4-yl)-4,5,6,7-tetrahydro-1H-indazole-6-carboxamide] was above 10000 nM.
Still for that read-out and setting: the value for `CC(C)n1nc(-c2cccc(CC#N)c2)c2c1C[C@H](C(=O)NC1(C)CS(=O)(=O)C1)CC2` [Example 94, (R)-3-(3-(cyanomethyl)phenyl)-1-isopropyl-N-(3-methyl-1,1-dioxidothietan-3-yl)-4,5,6,7-tetrahydro-1H-indazole-6-carboxamide] was above 10000 nM.
`CC(C)n1nc(-c2cncc(C(=O)NC(C)(C)C)c2)c2c1C[C@H](C(=O)NC1(C)CS(=O)(=O)C1)CC2` [Example 95, (R)-3-(5-(tert-butylcarbamoyl)pyridin-3-yl)-1-isopropyl-N-(3-methyl-1,1-dioxidothietan-3-yl)-4,5,6,7-tetrahydro-1H-indazole-6-carboxamide] gave an IC50 above 10000 nM.
The same measure, in the same setting: the value for `CC(C)n1nc(-c2cccc(OCC#N)c2)c2c1C[C@H](C(=O)NC1(C)CS(=O)(=O)C1)CC2` [Example 96, (R)-3-(3-(cyanomethoxy)phenyl)-1-isopropyl-N-(3-methyl-1,1-dioxidothietan-3-yl)-4,5,6,7-tetrahydro-1H-indazole-6-carboxamide] was above 10000 nM; that for `CC(C)n1nc(-c2cccc(S(C)(=O)=O)c2)c2c1C[C@H](C(=O)NC1(C)CS(=O)(=O)C1)CC2` [Example 98, (R)-1-isopropyl-N-(3-methyl-1,1-dioxidothietan-3-yl)-3-(3-(methylsulfonyl)phenyl)-4,5,6,7-tetrahydro-1H-indazole-6-carboxamide] was above 10000 nM.
On the same count and under the same terms, the same measure for `CCNS(=O)(=O)c1cccc(-c2nn(C(C)C)c3c2CC[C@@H](C(=O)NC2(C)CS(=O)(=O)C2)C3)c1` [Example 99, (R)-3-(3-(N-ethylsulfamoyl)phenyl)-1-isopropyl-N-(3-methyl-1,1-dioxidothietan-3-yl)-4,5,6,7-tetrahydro-1H-indazole-6-carboxamide]: above 10000 nM; for `CCc1ccc(F)c(-c2nn(C(C)C)c3c2CC[C@@H](C(=O)NC2(C)CS(=O)(=O)C2)C3)c1` [Example 100, (R)-3-(5-ethyl-2-fluorophenyl)-1-isopropyl-N-(3-methyl-1,1-dioxidothietan-3-yl)-4,5,6,7-tetrahydro-1H-indazole-6-carboxamide]: 158 nM; for `CC(C)n1nc(-c2cc(C#N)ccc2F)c2c1C[C@H](C(=O)NC1(C)CS(=O)(=O)C1)CC2` [Example 101, (R)-3-(5-cyano-2-fluorophenyl)-1-isopropyl-N-(3-methyl-1,1-dioxidothietan-3-yl)-4,5,6,7-tetrahydro-1H-indazole-6-carboxamide]: above 10000 nM.
In turn, `CC(C)n1nc(-c2cccc(C3(O)CCC3)c2)c2c1C[C@H](C(=O)NC1(C)CC(F)(F)C1)CC2` [Example 103, (R)-N-(3,3-difluoro-1-methylcyclobutyl)-3-(3-(1-hydroxycyclobutyl)phenyl)-1-isopropyl-4,5,6,7-tetrahydro-1H-indazole-6-carboxamide] showed an IC50 above 10000 nM.
Same read-out and setting: the same measure for `CC(C)n1nc(-c2cncc(OC(F)(F)C(F)F)c2)c2c1C[C@H](C(=O)N[C@@]1(C)CCS(=O)(=O)C1)CC2` [Example 105, (R)-1-isopropyl-N-((S)-3-methyl-1,1-dioxidotetrahydrothiophen-3-yl)-3-(5-(1,1,2,2-tetrafluoroethoxy)pyridin-3-yl)-4,5,6,7-tetrahydro-1H-indazole-6-carboxamide]: 118 nM; for `CC(C)n1nc(-c2cncc(OC(F)(F)C(F)F)c2)c2c1C[C@H](C(=O)NC1(C)CCS(=O)(=O)CC1)CC2` [Example 106, (R)-1-isopropyl-N-(4-methyl-1,1-dioxidotetrahydro-2H-thiopyran-4-yl)-3-(5-(1,1,2,2-tetrafluoroethoxy)pyridin-3-yl)-4,5,6,7-tetrahydro-1H-indazole-6-carboxamide]: 204 nM.

The same assay, now with this note: unit given as nm; hDGAT2 Sf-9 membrane prep; 13C18-triolein product by LC/MS/MS.
The molecule `CC1(NC(=O)[C@@H]2CCc3c(-c4cc(OC(F)F)ccc4F)nn(S(C)(=O)=O)c3C2)CS(=O)(=O)C1` [Example 115, (R)-3-(5-(difluoromethoxy)-2-fluorophenyl)-N-(3-methyl-1,1-dioxidothietan-3-yl)-1-(methylsulfonyl)-4,5,6,7-tetrahydro-1H-indazole-6-carboxamide] yielded an IC50 of 108 nM.
